≈ marks a conversion by molar mass, not a printed value.
Key:
[1] = tested on: Mycobacterium smegmatis IFO 3153; experiment: Antibacterial effect against specific bacteria (MIC); assay type: cell-based; settings: Mycolicibacterium smegmatis, IFO3153; same manner as Experimental Example 1
Protocol: (§1) The in vitro antibacterial activity (minimum inhibitory concentration, MIC, µg/ml) of the test compounds was determined according to Japan Society of Chemotherapy Standard [Chemotherapy, vol. 29, pp 76-79 (1981)].
(§2) In the same manner as in Experimental Example 1, the antibacterial effect against specific bacteria such as Chlamydia, Mycoplasma and acid-fast bacteria and anaerobic bacteria was determined.

[2] = tested on: Chlamydia trachomatis D/UW-3Cx; experiment: as above; assay type: cell-based; settings: same manner as Experimental Example 1
Protocol: as §1, §2

B. fragilis BFY-18 = experiment: as above; assay type: cell-based; settings: Bacteroides fragilis, BFY18; same manner as Experimental Example 1
Protocol: as §1, §2

[3] = tested on: Ureaplasma urealyticum ATCC 27618; experiment: as above; assay type: cell-based; settings: ATCC27618, same manner as Experimental Example 1
Protocol: as §1, §2

[4] = tested on: Mycoplasma pneumoniae ATCC 29343; experiment: as above; assay type: cell-based; settings: ATCC29343, same manner as Experimental Example 1
Protocol: as §1, §2

[5] = tested on: Enterobacter cloacae IFO 12937; experiment: In vitro antibacterial activity (MIC), Japan Society of Chemotherapy Standard; assay type: cell-based; settings: IFO12937, inoculated cells 10⁶ cells/ml
Protocol: as §1
(§3) Inoculated cells were 10⁶ cells/ml and the strain with * was incubated in a medium supplemented with 10% horse blood. The mark "1)" means quinolone resistant MRSA and "2)" means quinolone resistant bacteria.

[6] = tested on: Escherichia coli NIHJ JC-2; experiment: as above; assay type: cell-based; settings: NIHJJC2, inoculated cells 10⁶ cells/ml
Protocol: as §1, §3

[7] = tested on: S. epidermidis ATCC 12228; experiment: as above; assay type: cell-based; settings: Staphylococcus epidermidis, ATCC12228; inoculated cells 10⁶ cells/ml
Protocol: as §1, §3

[8] = tested on: Streptococcus pyogenes C-203; experiment: as above; assay type: cell-based; settings: C203, inoculated cells 10⁶ cells/ml, medium supplemented with 10% horse blood
Protocol: as §1, §3

[9] = tested on: Serratia marcescens IFO 12648; experiment: as above; assay type: cell-based; settings: IFO12648, inoculated cells 10⁶ cells/ml
Protocol: as §1, §3

[10] = tested on: Citrobacter freundii IFO 12681; experiment: as above; assay type: cell-based; settings: IFO12681, inoculated cells 10⁶ cells/ml
Protocol: as §1, §3

E. avium EAY-30 = experiment: as above; assay type: cell-based; settings: Enterococcus avium, EAY30, inoculated cells 10⁶ cells/ml
Protocol: as §1, §3

[11] = tested on: Pseudomonas aeruginosa IFO 12582; experiment: as above; assay type: cell-based; settings: IFO12582, inoculated cells 10⁶ cells/ml
Protocol: as §1, §3

[12] = tested on: Corynebacterium diphtheriae Tronto; experiment: as above; assay type: cell-based; settings: inoculated cells 10⁶ cells/ml, medium supplemented with 10% horse blood
Protocol: as §1, §3

S. viridans America = experiment: as above; assay type: cell-based; settings: Streptococcus viridans; inoculated cells 10⁶ cells/ml; medium supplemented with 10% horse blood
Protocol: as §1, §3

Shigella flexneri EW-10 = experiment: as above; assay type: cell-based; settings: EW10, inoculated cells 10⁶ cells/ml
Protocol: as §1, §3

[13] = tested on: Enterococcus faecalis LS-101; experiment: as above; assay type: cell-based; settings: LS101, inoculated cells 10⁶ cells/ml
Protocol: as §1, §3

[14] = tested on: Acinetobacter calcoaceticus ATCC 13006; experiment: as above; assay type: cell-based; settings: ATCC13006, inoculated cells 10⁶ cells/ml
Protocol: as §1, §3

S. pneumoniae Type-III = experiment: as above; assay type: cell-based; settings: Streptococcus pneumoniae; inoculated cells 10⁶ cells/ml; medium supplemented with 10% horse blood
Protocol: as §1, §3

S. epidermidis SEY-223 = experiment: as above; assay type: cell-based; settings: Staphylococcus epidermidis, SEY223; quinolone resistant bacteria; inoculated cells 10⁶ cells/ml
Protocol: as §1, §3

[15] = tested on: Staphylococcus aureus FDA 209P; experiment: as above; assay type: cell-based; settings: FDA209P, inoculated cells 10⁶ cells/ml
Protocol: as §1, §3

S. aureus No.88 = experiment: as above; assay type: cell-based; settings: Staphylococcus aureus; quinolone resistant MRSA; inoculated cells 10⁶ cells/ml
Protocol: as §1, §3

E. faecium EFMY-28 = experiment: as above; assay type: cell-based; settings: Enterococcus faecium, EFMY28; inoculated cells 10⁶ cells/ml
Protocol: as §1, §3

Klebsiella pneumoniae DT = experiment: as above; assay type: cell-based; settings: inoculated cells 10⁶ cells/ml
Protocol: as §1, §3

[16] = tested on: Proteus vulgaris IFO 3988; experiment: as above; assay type: cell-based; settings: IFO3988, inoculated cells 10⁶ cells/ml
Protocol: as §1, §3

E. faecalis EFY-204 = experiment: as above; assay type: cell-based; settings: Enterococcus faecalis, EFY204; quinolone resistant bacteria; inoculated cells 10⁶ cells/ml
Protocol: as §1, §3

P. mirabilis IFO 3849 = experiment: as above; assay type: cell-based; settings: Proteus mirabilis, IFO3849; inoculated cells 10⁶ cells/ml
Protocol: as §1, §3

E. faecium EFMY-207 = experiment: as above; assay type: cell-based; settings: Enterococcus faecium, EFMY207; quinolone resistant bacteria; inoculated cells 10⁶ cells/ml
Protocol: as §1, §3

S. aureus Smith [17] = experiment: Protection of mice from experimental infection; assay type: in vivo; settings: male mice; intraperitoneal inoculation 2.8×10⁶ cells/mouse (123×LD₅₀); oral administration one hour after inoculation; survival ratio at 7 days, probit method
Protocol: (§4) Experimental infection was caused by intraperitoneal inoculation of respective bacteria to male mice. One hour after the inoculation, a test compound was orally administered to the mice. The therapeutic effect of each test compound was evaluated by reference to the 50% effective dose (ED₅₀) which was based on the survival ratio at 7 days after the administration according to the probit method [Proc. Soc. Exp. Med., Vol. 57, p 261-264 (1944)]. The minimum inhibitory concentration (MIC) of the infectious bacteria used was also determined. […]

S. aureus MRSA Y-238 [18] = experiment: Protection of mice from experimental infection; assay type: in vivo; settings: Table 3-2: male mice; intraperitoneal inoculation 7.5×10⁵ cells/mouse (185×LD₅₀); oral administration one hour after inoculation; survival ratio at 7 days
Protocol: as §4

E. coli KC-14 [19] = experiment: Protection of mice from experimental infection; assay type: in vivo; settings: Table 3-2: male mice; intraperitoneal inoculation (744×LD₅₀); oral administration one hour after inoculation; survival ratio at 7 days
Protocol: as §4

S. aureus Smith [20] = experiment: MIC of the infectious bacteria used for experimental infection; assay type: cell-based; settings: Staphylococcus aureus; infectious strain of the mouse protection test
Protocol: as §1, §4

S. aureus MRSA Y-238 [21] = experiment: as above; assay type: cell-based; settings: Staphylococcus aureus, infectious strain of the mouse protection test
Protocol: as §1, §4

E. coli KC-14 [22] = experiment: as above; assay type: cell-based; settings: Escherichia coli, KC14; infectious strain of the mouse protection test
Protocol: as §1, §4

COc1c(N2CC[C@@](CN)(CF)C2)c(F)cc2c(=O)c(C(=O)O)cn(C3CC3)c12 [Example 17, (S)-7-(3-aminomethyl-3-fluoromethylpyrrolidin-1-yl)-1-cyclopropyl-6-fluoro-1,4-dihydro-8-methoxy-4-oxo-3-quinolinecarboxylic acid]
MIC [1]: 0.1 µg/mL (≈ 0.245 µM)
MIC [2]: 0.025 µg/mL (≈ 0.0614 µM)
MIC (B. fragilis BFY-18): 0.2 µg/mL (≈ 0.491 µM)
MIC [3]: 0.39 µg/mL (≈ 0.957 µM)
MIC [4]: 0.1 µg/mL (≈ 0.245 µM)
MIC [5]: 0.39 µg/mL (≈ 0.957 µM)
MIC [6]: 0.1 µg/mL (≈ 0.245 µM)
MIC [7]: 0.025 µg/mL (≈ 0.0614 µM)
MIC [8]: 0.1 µg/mL (≈ 0.245 µM)
MIC [9]: 0.39 µg/mL (≈ 0.957 µM)
MIC [10]: 0.2 µg/mL (≈ 0.491 µM)
MIC (E. avium EAY-30): 0.2 µg/mL (≈ 0.491 µM)
MIC [11]: 1.56 µg/mL (≈ 3.83 µM)
MIC [12]: 0.025 µg/mL (≈ 0.0614 µM)
MIC (S. viridans America): 0.1 µg/mL (≈ 0.245 µM)
MIC (Shigella flexneri EW-10): 0.025 µg/mL (≈ 0.0614 µM)
MIC [13]: 0.025 µg/mL (≈ 0.0614 µM)
MIC [14]: 0.1 µg/mL (≈ 0.245 µM)
MIC (S. pneumoniae Type-III): 0.05 µg/mL (≈ 0.123 µM)
MIC (S. epidermidis SEY-223): 0.78 µg/mL (≈ 1.91 µM)
MIC [15]: 0.012 µg/mL (≈ 0.0295 µM)
MIC (S. aureus No.88): 0.78 µg/mL (≈ 1.91 µM)
MIC (E. faecium EFMY-28): 0.39 µg/mL (≈ 0.957 µM)
MIC (Klebsiella pneumoniae DT): 0.05 µg/mL (≈ 0.123 µM)
MIC [16]: 0.78 µg/mL (≈ 1.91 µM)
MIC (E. faecalis EFY-204): 1.56 µg/mL (≈ 3.83 µM)
MIC (P. mirabilis IFO 3849): 0.78 µg/mL (≈ 1.91 µM)
MIC (E. faecium EFMY-207): 3.13 µg/mL (≈ 7.68 µM)
ED₅₀ (mg/mouse) (95% confidence limit) (S. aureus Smith [17]): 0.031(0.021-0.044) mg/mouse
ED₅₀ (mg/mouse) (95% confidence limit) (S. aureus MRSA Y-238 [18]): 1.540(1.103-2.151) mg/mouse
ED₅₀ (mg/mouse) (95% confidence limit) (E. coli KC-14 [19]): 0.011(0.008-0.015) mg/mouse
MIC (S. aureus Smith [20]): ≤ 0.006 µg/mL
MIC (S. aureus MRSA Y-238 [21]): 0.39 µg/mL
MIC (E. coli KC-14 [22]): 0.025 µg/mL
